Values of other authors in paper PMC9090141 (Pediatric blood & cancer, 2021).
Structures can show the parent of a compound that is named as a salt. Where two headings read alike, the source gives them in different places.

Key:
[1] = adults, 105 mg/m^2, cited from earlier work
[2] = system: pediatric cancer cell lines; conditions: cited from earlier work
[3] = system: pediatric tumor xenograft models; conditions: in vivo; cited from earlier work

Structure (SMILES): COc1cccc(OCCCN)c1-c1cc(Nc2cnc(C#N)cn2)n[nH]1 [prexasertib, Prexasertib mesylate monohydrate]
- mean AUC0–24h ([1]; ref Hong et al. [11]): 1130 ng·h/mL
- mean AUC0–24h ([1]; ref Iwasa et al. [20]): 1690 ng·h/mL
- inhibition of cell proliferation, potency [2]: low nanomolar concentrations
- tolerability [3]: well-tolerated
